The source of these data is patent US20010056085A1, “Methods of using vesicant drug formulations” (priority 1996, published 2001).

Where two headings read alike, the source gives them in different places.

This assay in a line: Half-life of ADR destruction by UVA light in the presence of test compounds (decrease in absorbance at 480 nm). The format is physicochemical.
The mark [1] stands for this setting: UVA light, 100 μM test compound alone.
[2] abbreviates: UVA light, 100 μM test compound with 0.5 μM riboflavin.

Turning to `O=C(O)CCC(=O)c1ccc2ccccc2c1` [γ-Oxo-2-naphthalenebutyric acid], under setting [1], the “Half-Life of ADR Destruction, 100 μM Test Compound” value came to 8.36 min. Under setting [2], the “Half-Life of ADR Destruction, 100 μM Test Compound and 0.5 μM Riboflavin” value stood at 8.18 min.

For `c1ccc2c(c1)CCc1ccccc1N2` [Iminodibenzyl], the “Half-Life of ADR Destruction, 100 μM Test Compound and 0.5 μM Riboflavin” value under setting [2] came out at 23.2 min.

Regarding `O=C(O)Cc1ccc2ccccc2c1` [Naphthalene-2-acetic acid], the “Half-Life of ADR Destruction, 100 μM Test Compound” value under setting [1] amounted to 75.3 min. For the same compound, under setting [2], the “Half-Life of ADR Destruction, 100 μM Test Compound and 0.5 μM Riboflavin” value worked out at 30.1 min.

For `O=C(O)c1ccc(C(=O)c2ccccc2)cc1` [4-Benzophenone-carboxylic acid], the “Half-Life of ADR Destruction, 100 μM Test Compound” value came out at 10.0 min; the “Half-Life of ADR Destruction, 100 μM Test Compound and 0.5 μM Riboflavin” value came to 7.72 min.

For the compound `COc1cccc(C(=O)O)c1` [3-Methoxy Benzoic Acid], the “Half-Life of ADR Destruction, 100 μM Test Compound” value under setting [1] came out at 43.0 min.

As for `COc1cc(OC)c(OC)cc1C=CC(=O)O` [2,4,5-Trimethoxy Cinnamic Acid], the “Half-Life of ADR Destruction, 100 μM Test Compound and 0.5 μM Riboflavin” value under setting [2] worked out at 18.8 min.

As to `OCCc1ccsc1` [Thiophene-3-ethanol], the “Half-Life of ADR Destruction, 100 μM Test Compound and 0.5 μM Riboflavin” value under setting [2] was 50.2 min.

Take `CCc1ccc(N)cc1` [4-Ethyl Aniline]: the “Half-Life of ADR Destruction, 100 μM Test Compound and 0.5 μM Riboflavin” value under setting [2] worked out at 10.4 min.

As to `Nc1ccc(C(=O)c2ccccc2)cc1` [4-Aminobenzophenone], the “Half-Life of ADR Destruction, 100 μM Test Compound and 0.5 μM Riboflavin” value under setting [2] was 21.5 min.

As for `Oc1ccc2c(c1)[nH]c1ccccc12` [2-Hydroxy Carbazole], the “Half-Life of ADR Destruction, 100 μM Test Compound and 0.5 μM Riboflavin” value (UVA light, with 0.5 μM riboflavin, +4% DMSO) was found to be 75.3 ± 35.4 min.

Regarding `Cc1cc(C(=O)O)ccc1N` [4-Amino-3-Methyl Benzoic Acid], under setting [2], the “Half-Life of ADR Destruction, 100 μM Test Compound and 0.5 μM Riboflavin” value stood at 15.8 min.

On to `Cn1ccc2ccccc21` [1-methyl Indole], for which, under setting [2], the “Half-Life of ADR Destruction, 100 μM Test Compound and 0.5 μM Riboflavin” value was determined as 33.5 min.

Take `CN1C(C(=O)Nc2ccccn2)=C(O)c2ccccc2S1(=O)=O` [Piroxicam, reference compound]: the “Half-Life of ADR Destruction, 100 μM Test Compound” value under setting [1] worked out at 100.3 min. Moreover, the “Half-Life of ADR Destruction, 100 μM Test Compound and 0.5 μM Riboflavin” value under setting [2] was found to be 10.4 min.

With `O=C(c1ccccc1)c1ccncc1` [4-Benzoylpyridine], under setting [1], the “Half-Life of ADR Destruction, 100 μM Test Compound” value amounted to 17.2 ± 1.9 min. Further, the “Half-Life of ADR Destruction, 100 μM Test Compound and 0.5 μM Riboflavin” value under setting [2] was 11.6 min.

On to `Nc1ccc(S(=O)(=O)O)cc1` [4-Amino Benzenesulfonic acid], for which the “Half-Life of ADR Destruction, 100 μM Test Compound and 0.5 μM Riboflavin” value under setting [2] was 18.8 min.

Turning to `Cc1cccc(CO)c1N` [2-Amino-3-Methyl Benzyl Alcohol], the “Half-Life of ADR Destruction, 100 μM Test Compound and 0.5 μM Riboflavin” value under setting [2] amounted to 18.8 min.

With `COc1cc(/C=C/CO)ccc1O[C@@H]1O[C@H](CO)[C@@H](O)[C@H](O)[C@H]1O` [Coniferin], under setting [1], the “Half-Life of ADR Destruction, 100 μM Test Compound” value was 50.2 min. In addition, the “Half-Life of ADR Destruction, 100 μM Test Compound and 0.5 μM Riboflavin” value under setting [2] came out at 15.1 min.

With `CC(=O)c1ccc(O)cc1` [4′-Hydroxyacetophenone], the “Half-Life of ADR Destruction, 100 μM Test Compound” value under setting [1] was found to be 50.2 min. Further, under setting [2], the “Half-Life of ADR Destruction, 100 μM Test Compound and 0.5 μM Riboflavin” value turned out to be 50.2 min.

On to `COc1ccc(CCCC(=O)O)cc1` [4-(4-Methoxyphenyl) Butyric Acid], for which the “Half-Life of ADR Destruction, 100 μM Test Compound and 0.5 μM Riboflavin” value under setting [2] was found to be 10.8 min.

For the compound `N[C@@H](Cc1c[nH]c2ccc(O)cc12)C(=O)O` [5-Hydroxy-tryptophan], the “Half-Life of ADR Destruction, 100 μM Test Compound and 0.5 μM Riboflavin” value under setting [2] is 301.0 min.

As for `N[C@@H](Cc1ccccc1O)C(=O)O` [2-Hydroxy Phenylalanine], the “Half-Life of ADR Destruction, 100 μM Test Compound and 0.5 μM Riboflavin” value under setting [2] stood at 15.1 min.

Consider `Nc1ccc2[nH]ccc2c1` [5-Amino Indole], for which the “Half-Life of ADR Destruction, 100 μM Test Compound and 0.5 μM Riboflavin” value under setting [2] was found to be 100.3 min.

Take `CC(=O)c1ccc2ccccc2c1` [2-Acetonaphthone]: the “Half-Life of ADR Destruction, 100 μM Test Compound” value under setting [1] was determined as 8.36 min. Also, under setting [2], the “Half-Life of ADR Destruction, 100 μM Test Compound and 0.5 μM Riboflavin” value amounted to 7.92 min.

In the case of `COc1ccc2cc(C(C)=O)ccc2c1` [6-Methoxy-2-acetonaphthone], under setting [1], the “Half-Life of ADR Destruction, 100 μM Test Compound” value amounted to 15.8 min.

With `COc1ccc2ccccc2c1C(=O)O` [2-Methoxynaphthalene-1-carboxylic acid], the “Half-Life of ADR Destruction, 100 μM Test Compound” value under setting [1] stood at 33.5 min. Under setting [2], the “Half-Life of ADR Destruction, 100 μM Test Compound and 0.5 μM Riboflavin” value came out at 2.95 min.

Consider `Cc1c[nH]c2ccccc12` [3-Methyl Indole], for which the “Half-Life of ADR Destruction, 100 μM Test Compound and 0.5 μM Riboflavin” value under setting [2] was 20.1 min.

In the case of `O=C(O)CCC(=O)c1ccc(-c2ccccc2)cc1` [Fenbufen, reference compound], under setting [1], the “Half-Life of ADR Destruction, 100 μM Test Compound” value was determined as 12.5 min. Also, the “Half-Life of ADR Destruction, 100 μM Test Compound and 0.5 μM Riboflavin” value under setting [2] stood at 12.0 min.

As for `CN(C)c1ccc(CN)cc1` [4-(Dimethylamino) Benzylamine], under setting [2], the “Half-Life of ADR Destruction, 100 μM Test Compound and 0.5 μM Riboflavin” value stood at 43.0 min.

As for `Cc1cc2nc3[nH]c(=O)[nH]c(=O)c3nc2cc1C` [Lumichrome], the “Half-Life of ADR Destruction, 100 μM Test Compound” value stood at 6.02 min; the “Half-Life of ADR Destruction, 100 μM Test Compound and 0.5 μM Riboflavin” value turned out to be 3.86 min.

`O=C(/C=C/c1ccc(O)c(O)c1)O[C@@H]1C[C@](O)(C(=O)O)C[C@@H](O)[C@H]1O` [3-Caffeolyquinic Acid]: under setting [1], the “Half-Life of ADR Destruction, 100 μM Test Compound” value stood at 100.3 min. Further, the “Half-Life of ADR Destruction, 100 μM Test Compound and 0.5 μM Riboflavin” value under setting [2] came to 100.3 min.

In the case of `C1CCNC1` [Pyrrolidine], under setting [2], the “Half-Life of ADR Destruction, 100 μM Test Compound and 0.5 μM Riboflavin” value was 50.2 min.

As to `O=C(c1ccccc1)c1ccc2n1CCC2C(=O)O` (stereo not drawn) [Ketorlac, reference compound], the “Half-Life of ADR Destruction, 100 μM Test Compound” value stood at 4.07 min; the “Half-Life of ADR Destruction, 100 μM Test Compound and 0.5 μM Riboflavin” value was found to be 3.81 min.

As for `NC(C(=O)O)c1ccccc1` (stereo not drawn) [Phenylglycine], the “Half-Life of ADR Destruction, 100 μM Test Compound and 0.5 μM Riboflavin” value under setting [2] is 67.8 ± 10.7 min.

For the compound `COc1ccc(C[C@H](N)C(=O)O)cc1` [4-Methoxy Phenylalanine], under setting [2], the “Half-Life of ADR Destruction, 100 μM Test Compound and 0.5 μM Riboflavin” value was found to be 15.1 min.

Take `O=C1c2ccccc2-c2ncccc21` [4-Aza-9-fluorenone]: the “Half-Life of ADR Destruction, 100 μM Test Compound and 0.5 μM Riboflavin” value under setting [2] is 50.2 min.

Regarding `CC(=O)c1ccc2cc(C)ccc2c1` [6-Methyl-2-acetonaphthone], under setting [1], the “Half-Life of ADR Destruction, 100 μM Test Compound” value is 8.85 min. For the same compound, the “Half-Life of ADR Destruction, 100 μM Test Compound and 0.5 μM Riboflavin” value under setting [2] was 7.53 min.

On to `COc1ccc2ccc(=O)oc2c1` [7-Methoxycoumarin], for which the “Half-Life of ADR Destruction, 100 μM Test Compound” value under setting [1] came out at 20.1 min. Further, under setting [2], the “Half-Life of ADR Destruction, 100 μM Test Compound and 0.5 μM Riboflavin” value was determined as 18.8 min.

In the case of `Cc1c(N)cccc1C(=O)O` [3-Amino-2-Methyl Benzoic Acid], the “Half-Life of ADR Destruction, 100 μM Test Compound and 0.5 μM Riboflavin” value under setting [2] came to 23.2 min.

Consider `CN(C)c1ccc(CC(=O)O)cc1` [4-(Dimethylamino) Phenylacetic acid], for which, under setting [2], the “Half-Life of ADR Destruction, 100 μM Test Compound and 0.5 μM Riboflavin” value is 100.3 min.

Consider `O=C(c1ccc(C(=O)O)c(C(=O)O)c1)c1ccc(C(=O)O)c(C(=O)O)c1` [3,3′,4,4′-Benzophenone-tetracarboxylic acid], for which the “Half-Life of ADR Destruction, 100 μM Test Compound” value under setting [1] came to 43.0 min.

With `Cn1c(=O)[nH]c2[nH]c(=O)[nH]c2c1=O` [1-Methyl Uric acid], the “Half-Life of ADR Destruction, 100 μM Test Compound and 0.5 μM Riboflavin” value under setting [2] worked out at 33.4 min.

On to `Nc1ccccc1S(=O)(=O)O` [2-Amino Benzenesulfonic acid], for which the “Half-Life of ADR Destruction, 100 μM Test Compound and 0.5 μM Riboflavin” value under setting [2] amounted to 20.1 min.
